According to PMC8333620, “Novel Tl(III) complexes containing pyridine-2,6-dicarboxylate derivatives with selective anticancer activity through inducing mitochondria-mediated apoptosis in A375 cells” (Scientific Reports, 2021):
Like-named read-outs stand apart in the source and are kept apart here.

What was measured:
[1] = tested on: A375 (a human melanoma) cell line; test: MTT cytotoxicity assay, A375; type: cell-based; settings: MTT, 48 h; for Viability inhibition, A375: concentration not given; for IC50: read-out: Cytotoxicity (IC50 ± SEM) against A375
Protocol: (§1) In this study, A375 (a human melanoma), HT29 (a human colon adenocarcinoma), and HFF (a human foreskin fibroblast) cell lines were provided from the Pasteur Institute (Iran). […] 10 mM stock solutions of compounds were prepared in DMSO and diluted in a fresh medium for use. The final concentration of DMSO never exceeded 0.1% (v/v). […] Then the medium was replaced with the respective medium containing ligands or Tl(III) complexes at different concentrations and incubated for 48 h. 10 μL of MTT was added and the medium was removed after 4 h of incubation. Finally, the violet crystal was solubilized in 100 μL DMSO and the absorbance was measured at 570 nm. IC50 value was measured by the standard method. The evaluations were carried out in triplicate[21],[23].

[2] = tested on: HT29 (a human colon adenocarcinoma) cell line; test: MTT cytotoxicity assay, HT29; type: cell-based; settings: MTT, 48 h; for IC50: read-out: Cytotoxicity (IC50 ± SEM) against HT29
Protocol: as §1

[3] = tested on: HFF (a human foreskin fibroblast) cell line; test: MTT cytotoxicity assay, HFF; type: cell-based; settings: MTT, 48 h; read-out: Cytotoxicity (IC50 ± SEM) against HFF
Protocol: as §1

[4] = Cyclic voltammetry of the complexes; type: physicochemical; settings: versus Ag/AgCl, KCl 0.1 M, GCE, scan rate 50 V/s; for formal potential E0': 4 × 10^–3 mol/dm^3 in H2O; for EA (anodic peak potential) / EC (cathodic peak potential): H2O
From the text: The electrochemical behavior of the complexes and also their ligands was studied by the cyclic voltammograms in the potential range of + 1.5 to –1.5 V and a scan rate of 50 Vs^–1. […] Redox couples at E^0ˊ 0.109, –0.051, and 0.244 V were obtained for C1, C2, and C3, respectively. The electrochemical oxidation of all three complexes seems be a one-stage process which includes irreversible couples with EC = –0.363 V, EA = 0.472 V for C1, EC = –0.271 V, EA = 0.220 V for C2 and EC = –0.337 V, EA = 0.581 V for C3. The peaks can be interpreted according to the Tl(III)/Tl(I) redox system for complexes. […] Therefore, redox couples are related to only the metal centers in complexes[27],[28].
Figure 4 Cyclic voltammogram of complexes c = 4 × 10^–3 mol/dm^3 in H2O medium, KCl (0.1 M) at GCE, scan rate 50 V/s.
Pyridine-2,6-dicarboxylic acid, 4-hydroxy-pyridine-2,6-dicarboxylic acid, 2-aminobenzimidazole, 4-aminopyridine, and thallium(III) nitrate trihydrate were purchased from the commercial sources and were used as received. The solvents were distilled for all synthetic works. Melting points were obtained on an Electrothermal IA-9100 apparatus. The FT-IR spectra were recorded on a Bruker Vector 22 FT-IR spectrometer using KBr pellets. Electronic spectra were recorded on Specord 210, Analytik Jena spectrophotometer in the range of 200–900 nm at room temperature. The ^1HNMR spectra were obtained from Bruker Ultrashield 400 spectrometer. Microanalyses (C, H, N) were measured with a Perkin-Elmer 2004(II) elemental analyzer. Electrochemical experiments were performed using a µAUTOLAB modular electrochemical system (ECO Chemie, Utrecht, the Netherlands) equipped with a PGSTAT type III module driven by GPES software in conjunction with a conventional three-electrode system an Ag/AgCl/3 M KCl and platinum wire as reference and counter electrode respectively and a GC as the working electrode.

[5] = tested on: A375 cells; test: Cellular uptake of Tl (ICP-MS), A375; type: cell-based, human; settings: 10 μM, 24 h
Protocol: A375 cells (1 × 10^7 cells) were treated with 10 μM C1–C3 and Tl(NO3)3.3H2O, respectively, for 24 h at 37 °C, 5% CO2, and 95% air. Cold PBS (phosphate buffer, pH = 7.4) was used for rinsing the cells three times after being collected. Cells were lysed in 1 M NaOH (1 mL) and diluted with 2% (v/v) HNO3 (5 mL) to determine whole-cell thallium content. The amount of thallium taken up by the cells was measured by ICP-MS. The instrument calibrates thallium using a standard solution containing 10, 50, 100, 500, and 1000 ppb thallium. This test was performed as explained on HFF cells treatment to C3[38].

[6] = tested on: A375 cells; test: Intracellular ROS (H2DCF-DA, flow cytometry), A375; type: cell-based, human; settings: A375, IC50 concentrations, 24 h
Protocol: (§2) The generation of intracellular ROS was evaluated by reactive oxygen species assay kit. 2 mL of A375 cells (1 × 10^6 cells/mL) were induced with C1–C3 (at IC50 concentrations) at 37 °C for 24 h, serum-free medium washed twice. Then, the cells were incubated in 2 mL of serum-free medium containing H2DCF-DA (2 μM) for 30 min at 37 °C, serum-free medium washed twice. Cells were collected and assayed by flow cytometer with excitation wavelength at 489 nm and emission wavelength at 524 nm, and ten thousand events were collected. The DCF fluorescence peak for this cell sample was evaluated and data were analyzed by FlowJo software. This test was performed as explained on HFF cells treatment to C3 (at the highest concentration)[38].

[7] = tested on: HFF cells; test: Intracellular ROS (H2DCF-DA, flow cytometry), HFF; type: cell-based, human; settings: highest concentration, 24 h, compared with A375
Protocol: as §2

[8] = tested on: A375 cells; test: Cell cycle analysis (PI, flow cytometry), A375; type: cell-based, human; settings: A375, IC50 concentrations, 24 h; with respect to untreated control cells
Protocol: (§3) A375 cells were seeded in 6-well plates with 1.5 × 10^6 cells /well and treated with the C1 and C3 at IC50 concentrations for 24 h. Cells were trypsinized, collected, and fixed in ice-cold 75% ethanol at − 20 °C overnight. After centrifugation, the fixed cells were rinsed with ice-cold phosphate-buffered saline (PBS) and resuspended in 0.5 mL of PBS containing 100 μg/mL DNase-free RNase A (Thermo Fisher Scientific Biosciences GmbH, St. Leon-Rot, Germany), 50 μg/mL propidium iodide (PI; Sigma Aldrich) in the dark for 30 min. The distribution of the cells in different phases of the cell cycle was determined using flow cytometry (Attune Nxt, Thermo Fisher Scientific-US) and FlowJo software v10.6.1 (https://www.flowjo.com/solutions/flowjo/downloads) was used to analyze the data. This test was performed as explained on HFF cells treatment to C3 (at the highest concentration)[62].

[9] = tested on: HFF cells; test: Cell cycle analysis (PI, flow cytometry), HFF; type: cell-based, human; settings: highest concentration, 24 h
Protocol: as §3

[10] = tested on: A375 cells; test: Apoptosis by Annexin-V/PI staining; type: cell-based, human; settings: A375, IC50 concentrations, 24 h
Protocol: Annexin V-FITC and PI staining (Annexin V/PI) apoptosis detection kit were used for assessing the percentage of dead cells by apoptosis pathway. Briefly, A375 cells were treated with C1 and C3 at IC50 concentrations. After 24 h of incubation, cells were washed with PBS, trypsinized, centrifuged, and re-suspended in 100 μL binding buffer at a concentration of 1 × 10^6 cells/mL, then added 5 μL of annexin V-FITC conjugate (30 min), and 5 μL of Propidium Iodide (PI) to each cell suspension (20 min) in the dark. The samples were analyzed using a flow cytometer (Attune Nxt, Thermo Fisher Scientific-US), and the results were assessed using the FlowJo software.

[11] = tested on: A375 cells; test: Mitochondrial membrane potential assay (JC-1), A375; type: cell-based, human; settings: A375, IC50 concentrations, JC-1, 24 h
Protocol: (§4) Mitochondrial membrane potential analysis was determined by fluorescent dye JC-1 staining according to the manufacturer's protocol for the JC-1 assay kit. In brief, 2 mL of A375 cells (1 × 10^5 cells/mL) were treated with IC50 concentrations of C1 and C3 in 6-well plates for […]. Cells were harvested and washed three times with PBS after 24 h of incubation. Then cells were stained with 1 mL of JC-1 stock solution (10 mg/mL). Assays were initiated by incubating A375 cells with JC-1 for 30 min at 37 °C in the dark and detected with a fluorescence microscope. This test was performed as explained on HFF cells treatment to C3 (at the highest concentration).

[12] = tested on: HFF cells; test: Mitochondrial membrane potential assay (JC-1), HFF; type: cell-based, human; settings: highest concentration, JC-1, 24 h
Protocol: as §4

[13] = tested on: p53; test: Western blot, p53 in A375 cells; type: cell-based, human; settings: A375, IC50 concentrations, 24 h
Protocol: (§5) After incubation with C1 and C3 at IC50 concentrations for 24 h, A375 cells were harvested and lysed in 150 μL of lysis buffer (149 μL RIPA and 1 μL PMSF), and then placed on ice for 15 min. Total proteins were extracted by centrifuging the cell sample at 10,000 rpm and 4 °C for 10 min. Then about 50 μg of purified proteins were mixed with an equal volume of electrophoresis sample buffer, and the mixture was heated for 10 min. Meanwhile, the equal protein content from the control cells was prepared in the same way. The cell sample (10 μL) was loaded onto 10% SDS-PAGE gels and then transferred onto a microporous polyvinylidene difluoride (PVDF) membrane. The membrane was blocked with 5% BSA in TBST buffer for more than 2 h. After the removal of TBST buffer, membranes were incubated with an appropriate dilution of specific primary antibodies in TBST overnight at 4 °C and then washed with TBST three times. The membranes were incubated with secondary antibodies for 1 h and washed with TBST. The immunoreactive signals were detected using an enhanced chemo-luminance kit (Pierce ECL Western Blotting Substrate) following the procedures given in the user manual[46],[63].

[14] = tested on: Bax/Bcl-2; test: Western blot, Bax/Bcl-2 ratio in A375 cells; type: cell-based, human; settings: A375, IC50 concentrations, 24 h
Protocol: as §5

[15] = tested on: procaspase-9; test: Western blot, procaspase-9 in A375 cells; type: cell-based, human; settings: A375, IC50 concentrations, 24 h, densitometry
Protocol: as §5

[16] = MTT cytotoxicity assay, HFF; type: cell-based, human; settings: human; MTT, 48 h; read-out: Cytotoxicity (IC50 ± SEM) against HFF
Protocol: as §1

| Compound | Viability inhibition, A375 [1] [%] | IC50 [1] [µM] | IC50 [2] [µM] | IC50 [3] [µM] | formal potential E0' [4] [V] | EA (anodic peak potential) [4] [V] | EC (cathodic peak potential) [4] | ROS level (DCF oxidation), more effective than vehicle control-treated [6] [%] | rise in the cellular population of the G2-M phase [8] [%] | apoptosis, more effective than vehicle control-treated [10] [%] | early apoptosis (annexin V+/PI-, Q3) [10] [%] | late apoptosis (annexin V+/PI+, Q2) [10] [%] | mitochondrial membrane potential (MMP) in A375 cells [11] | level of p53 [13] | ratio of Bax/Bcl-2 [14] [fold] | procaspase-9 level compared to control [15] [%] | further results |
| --- | --- | --- | --- | --- | --- | --- | --- | --- | --- | --- | --- | --- | --- | --- | --- | --- | --- |
| (4-apyH)[Tl(pydc)(pydcH)2]0.5H2O [C3] | 69.62 | 7.23 ± 0.93 | 193.2 ± 1.12 | > 500 | 0.244 | 0.581 | –0.337 V | 229.4 | 21.10 | 61.66 | 11.47 | 50.19 | MMP reduction | significantly enhanced | 5.25 | 110.97 | Viability inhibition, HT29 ([2]; concentration not given): 53.12%; permeation in A375 cells relative to normal (HFF) cells [5]: almost two times more than normal cells; production of ROS in HFF cells [7]: much less than what was produced in cancer cells of A375; effect on cell cycle distribution in HFF cells [9]: does not have a remarkable effect on the cellular population in none of the phases; changes in MMP of HFF cells [12]: insignificant changes |
| O=C1[O][Pt]2([NH][C@@H]3CCCC[C@H]3[NH]2)[O]C1=O [Oxaliplatin, reference compound] | – | 331 ± 2.69 | 323.1 ± 2.87 | 429.2 ± 2.32 | – | – | – | – | – | – | – | – | – | – | – | – | – |
| O=C(O)c1cc(O)cc(C(=O)O)n1 [hpydcH2, 4-hydroxy-pyridine-2,6-dicarboxylic acid] | – | – | – | – | – | – | – | – | – | – | – | – | – | – | – | – | IC50 ([1]; Homo sapiens, A-375): > 500 µM; IC50 ([2]; Homo sapiens, HT-29): > 500 µM; IC50 [16]: > 500 µM |
| (2-abH)2[Tl(pydc)2(H2O)2]2∙11H2O [C1] | 55.44 | 81.5 ± 1.02 | 354.4 ± 0.71 | > 500 | 0.109 | 0.472 | –0.363 V | 189.9 | 16.91 | 62.24 | 14.22 | 48.01 | MMP reduction | significantly enhanced | 3.60 | 64.12 | – |
